Test results as given in paper PMC6066978, “Chronic Intermittent Hypoxia-Induced Vascular Dysfunction in Rats is Reverted by N-Acetylcysteine Supplementation and Arginase Inhibition” (Frontiers in Physiology, 2018).

Target: arginase
Assay: arginase activity (urea production, ISPF colorimetric) in human placental homogenate
Type: biochemical

N[C@@H](CCCCB(O)O)C(=O)O [ABH, 2(S)-amino-6-boronohexanoic acid]
Ki: 4.78 ± 1.76 µM
